# Test results: patent publication US9708368B2, “Linear peptide antibiotics” (priority 2012, dated 2017)
# Square brackets hold non-standard residues; d marks the D form. Peptide text beside a SMILES is read from it. * marks the point of attachment. ξ: configuration not given here. boroAla((+)-pinanediol) = C[C@H](N*)B1O[C@@H]2C[C@@H]3C[C@@H](C3(C)C)[C@]2(C)O1; Biphenylcarbonyl(4'-Bu) = CCCCc1ccc(-c2ccc(C(=O)*)cc2)cc1; X1 = C[C@H](N*)B1OC2C[C@@H]3C[C@@H](C3(C)C)[C@]2(C)O1; Benzoyl(4-(4-Cl-Ph)) = O=C(c1ccc(-c2ccc(Cl)cc2)cc1)*; Thr(3ξ) = CC(O)[C@H](N)C(=O)O; Tle = CC(C)(C)[C@H](N)C(=O)O; X8 = C[C@H](N*)C(=O)C(N)=O; boroAla = C[C@H](N*)B(O)O; Dap = NC[C@H](N)C(=O)O; ξK = NCCCCC(N)C(=O)O; βAla = NCCC(=O)O
# What was measured:
# [1] = test system: Escherichia coli strain MC4100 IMP-4213, which harbors an LptD mutation; settings: Method B; E. coli MC4100 IMP-4213 (LptD mutation); 35° C., 22 hours
# How it was run: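 Two-fold serial dilutions of compound inoculated at final OD600 0.0005, incubated static at 35 °C for 22 h, and growth read visually.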
# [2] = test system: methicillin resistant Staphylococcus aureus (MRSA) strain USA300 (NRS384); settings: Method B, 35° C., 22 hours
# S. aureus SPase = S. aureus SPase (Staphylococcus aureus, UniProt P0A070); experiment: biochemical
# S. aureus SPase, sequence (P0A070 whole entry): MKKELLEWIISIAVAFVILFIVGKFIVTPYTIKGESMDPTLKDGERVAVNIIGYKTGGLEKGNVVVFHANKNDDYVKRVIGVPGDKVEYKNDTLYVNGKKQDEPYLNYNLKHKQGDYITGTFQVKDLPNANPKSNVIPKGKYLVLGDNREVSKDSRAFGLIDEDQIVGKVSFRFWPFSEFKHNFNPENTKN
# E. coli SPase = E. coli SPase (Escherichia coli, UniProt P00803); experiment: Biochemical SPase activity assay (fluorogenic peptide substrate), E. coli enzyme
# E. coli SPase, sequence (P00803 whole entry): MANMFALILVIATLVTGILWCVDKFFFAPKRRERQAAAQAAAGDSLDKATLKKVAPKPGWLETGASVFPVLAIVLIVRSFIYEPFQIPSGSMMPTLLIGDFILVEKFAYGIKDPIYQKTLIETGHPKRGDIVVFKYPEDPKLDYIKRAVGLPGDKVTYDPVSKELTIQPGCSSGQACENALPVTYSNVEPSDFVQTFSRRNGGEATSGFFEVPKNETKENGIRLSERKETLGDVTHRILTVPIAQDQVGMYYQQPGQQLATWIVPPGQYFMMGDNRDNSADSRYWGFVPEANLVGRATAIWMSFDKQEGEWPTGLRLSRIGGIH
SMILES,MIC (μg/mL) E. coli [1],MIC (μg/mL) S. aureus [2],IC50 (S. aureus SPase),IC50 (E. coli SPase)
CCCCc1ccc(-c2ccc(C(=O)NC(CCCCN)C(=O)N[C@@H](CCCCN)C(=O)N[C@@H](C)C(=O)N[C@@H](CC(C)C)C(=O)N[C@@H](C)C(=O)C(N)=O)cc2)cc1 (some centres unmarked) [Compound 253] ({Biphenylcarbonyl(4'-Bu)}-[ξK]KAL-X8),11 µg/mL,8 µg/mL,2100 nM,4800 nM
CCCCc1ccc(-c2ccc(C(=O)N[C@@H](CN)C(=O)N[C@@H](CN)C(=O)N[C@@H](C)C(=O)N[C@@H](CC(C)C)C(=O)N[C@@H](C)B3OC4C[C@@H]5C[C@@H](C5(C)C)[C@]4(C)O3)cc2)cc1 (some centres unmarked) [Compound 170] ({Biphenylcarbonyl(4'-Bu)}-[Dap][Dap]AL-X1),0.4 µg/mL,2 µg/mL,530 nM,10 nM
CCCCc1ccc(-c2ccc(C(=O)N[C@@H](CN)C(=O)N[C@@H](CCC(=O)N[C@H](C)C(=O)O)C(=O)N[C@@H](C)C(=O)N[C@@H](CCCCN)C(=O)N[C@@H](C)B3O[C@@H]4C[C@@H]5C[C@@H](C5(C)C)[C@]4(C)O3)cc2)cc1 [Compound 260] ({Biphenylcarbonyl(4'-Bu)}-[Dap]E(dA)AK-{boroAla((+)-pinanediol)}),1 µg/mL,4 µg/mL,83 nM,5.6 nM
CCCCc1ccc(-c2ccc(C(=O)N[C@H](CCCCN)C(=O)N[C@H](C(=O)N[C@@H](C)C(=O)N[C@@H](CCCCN)C(=O)N[C@@H](C)B(O)O)C(C)O)cc2)cc1 (some centres unmarked) [Compound 160] ({Biphenylcarbonyl(4'-Bu)}-[dK][Thr(3ξ)]AK-boroAla),64 µg/mL,2.8 µg/mL,900 nM,2100 nM
C[C@H](NC(=O)[C@H](CCCCN)NC(=O)[C@H](C)NC(=O)[C@@H](NC(=O)[C@H](CCN)NC(=O)c1ccc(-c2ccccc2C(F)(F)F)cc1)[C@@H](C)O)B1OC2C[C@@H]3C[C@@H](C3(C)C)[C@]2(C)O1 (some centres unmarked) [Compound 236],8 µg/mL,2 µg/mL,130 nM,28 nM
CCCCc1ccc(-c2ccc(C(=O)N[C@@H](CCCCN)C(=O)N[C@@H](CCCCN)C(=O)N[C@@H](C)C(=O)N[C@@H](CC(N)=O)C(=O)N[C@@H](C)B3O[C@@H]4C[C@@H]5C[C@@H](C5(C)C)[C@]4(C)O3)cc2)cc1 [Compound 134] ({Biphenylcarbonyl(4'-Bu)}-KKAN-{boroAla((+)-pinanediol)}),1.4 µg/mL,0.87 µg/mL,120 nM,8.7 nM
CCCCc1ccc(-c2ccc(C(=O)NCCC(=O)N[C@@H](CCCCN)C(=O)N[C@H](C(=O)N[C@@H](C)C(=O)N[C@@H](CC(N)=O)C(=O)N[C@@H](C)B3OC4C[C@@H]5C[C@@H](C5(C)C)[C@]4(C)O3)C(C)(C)C)cc2)cc1 (some centres unmarked) [Compound 210] ({Biphenylcarbonyl(4'-Bu)-βAla}-K[Tle]AN-X1),4 µg/mL,0.71 µg/mL,16 nM,56 nM
CCCCc1ccc(-c2ccc(C(=O)NCCC(=O)N[C@@H](CCCCN)C(=O)N3CCC[C@H]3C(=O)N[C@@H](C)C(=O)N[C@@H](CCCCN)C(=O)N[C@@H](C)B3OC4C[C@@H]5C[C@@H](C5(C)C)[C@]4(C)O3)cc2)cc1 (some centres unmarked) [Compound 214] ({Biphenylcarbonyl(4'-Bu)-βAla}-KPAK-X1),5.7 µg/mL,0.35 µg/mL,17 nM,77 nM
CCCCc1ccc(-c2ccc(CNCC[C@H](N)C(=O)N[C@H](C(=O)N[C@@H](C)C(=O)N[C@@H](CCCCN)C(=O)N[C@@H](C)B3OC4C[C@@H]5C[C@@H](C5(C)C)[C@]4(C)O3)[C@@H](C)O)cc2)cc1 (some centres unmarked) [Compound 276],16 µg/mL,0.5 µg/mL,110 nM,2000 nM
C[C@H](NC(=O)[C@H](CC(N)=O)NC(=O)[C@H](C)NC(=O)[C@@H](NC(=O)[C@H](CCCCN)NC(=O)CCNC(=O)c1ccc(-c2ccc(Cl)cc2)cc1)[C@@H](C)O)B(O)O [Compound 154] ({Benzoyl(4-(4-Cl-Ph))-βAla}-KTAN-boroAla),32 µg/mL,2.8 µg/mL,8.1 nM,14 nM
CCCCc1ccc(-c2ccc(C(=O)N[C@@H](CO)C(=O)N[C@H](C(=O)N[C@@H](C)C(=O)N[C@@H](CCCCN)C(=O)N[C@@H](C)B(O)O)[C@@H](C)O)cc2)cc1 [Compound 164] ({Biphenylcarbonyl(4'-Bu)}-STAK-boroAla),1 µg/mL,1.4 µg/mL,120 nM,44 nM
